Measured values taken from PubChem BioAssay AID256 (DTP/NCI, 2004).
Values joined by “and” are separate entries in the source; they are usually repeats but may differ in a detail not shown here. Identical values can stand only once. Inconclusive results and toxic doses are left out.

Test system: CD2F1 mice, L1210 leukemia ip, survival T/C
Assay: NCI In Vivo Anticancer Drug Screen. Data for tumor model L1210 Leukemia (intraperitoneal) in CD2F1 (CDF1) mice
Conditions: higher = longer survival
How it was run: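 Activity against a transplanted murine tumor was judged by comparing the compound group with a vehicle group. The outcome in the treated animals was divided by that in the controls.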

[1] = endpoint: mean survival time, dose: 100.0 mg/kg/injection, schedule: Q04DX003 (ip), vehicle: saline with Tween-80
[2] = endpoint: mean survival time, dose: 200.0 mg/kg/injection, schedule: Q04DX003 (ip), vehicle: saline with Tween-80
[3] = endpoint: mean survival time, dose: 400.0 mg/kg/injection, schedule: Q04DX003 (ip), vehicle: saline with Tween-80
[4] = endpoint: mean survival time, dose: 100.0 mg/kg/injection, schedule: Q01DX001 (ip), vehicle: saline with Tween-80
[5] = endpoint: mean survival time, dose: 200.0 mg/kg/injection, schedule: Q01DX001 (ip), vehicle: saline with Tween-80
[6] = endpoint: mean survival time, dose: 100.0 mg/kg/injection, schedule: Q01DX009 (ip), vehicle: saline with Tween-80
[7] = endpoint: mean survival time, dose: 200.0 mg/kg/injection, schedule: Q01DX009 (ip), vehicle: saline with Tween-80
[8] = endpoint: mean survival time, dose: 400.0 mg/kg/injection, schedule: Q01DX009 (ip), vehicle: saline with Tween-80
[9] = endpoint: mean survival time, dose: 50.0 mg/kg/injection, schedule: Q01DX009 (ip), vehicle: saline with Tween-80

O=C(Nc1cc([N+](=O)[O-])ccc1O)C(O)c1ccccc1 (centres undefined)
T/C (endpoint: mean survival time, dose: 12.5 mg/kg/injection, schedule: Q01DX009 (ip), vehicle: other): 95 % of control
T/C (endpoint: mean survival time, dose: 25.0 mg/kg/injection, schedule: Q01DX009 (ip), vehicle: other): 89 % of control
T/C (endpoint: mean survival time, dose: 50.0 mg/kg/injection, schedule: Q01DX009 (ip), vehicle: other): 86 % of control
T/C (endpoint: mean survival time, dose: 100.0 mg/kg/injection, schedule: Q01DX009 (ip), vehicle: other): 91 % of control
T/C (endpoint: mean survival time, dose: 200.0 mg/kg/injection, schedule: Q01DX009 (ip), vehicle: other): 91 % of control

CN1CCN(c2ccc3nc(-c4ccc5nc(-c6ccc(O)cc6)[nH]c5c4)[nH]c3c2)CC1
T/C (endpoint: mean survival time, dose: 6.25 mg/kg/injection, schedule: Q01DX009 (ip), vehicle: saline): 124 % of control
T/C (endpoint: mean survival time, dose: 12.5 mg/kg/injection, schedule: Q01DX009 (ip), vehicle: saline): 124 % of control
T/C (endpoint: mean survival time, dose: 25.0 mg/kg/injection, schedule: Q01DX009 (ip), vehicle: saline): 183 % of control
T/C (endpoint: mean survival time, dose: 50.0 mg/kg/injection, schedule: Q01DX009 (ip), vehicle: saline): 238 % of control and 314 % of control
T/C (endpoint: mean survival time, dose: 100.0 mg/kg/injection, schedule: Q01DX009 (ip), vehicle: saline): 294 % of control
T/C (endpoint: median survival time, dose: 6.25 mg/kg/injection, schedule: Q01DX009 (ip), vehicle: saline): 124 % of control
T/C (endpoint: median survival time, dose: 12.5 mg/kg/injection, schedule: Q01DX009 (ip), vehicle: saline): 117 % of control and 120 % of control
T/C (endpoint: median survival time, dose: 18.0 mg/kg/injection, schedule: Q01DX005 (ip), vehicle: saline): 119 % of control
T/C (endpoint: median survival time, dose: 18.0 mg/kg/injection, schedule: Q01DX005 (iv), vehicle: saline): 116 % of control
T/C (endpoint: median survival time, dose: 37.0 mg/kg/injection, schedule: Q01DX005 (iv), vehicle: saline): 115 % of control
T/C (endpoint: median survival time, dose: 50.0 mg/kg/injection, schedule: Q01DX005 (oral), vehicle: saline): 101 % of control
T/C (endpoint: median survival time, dose: 50.0 mg/kg/injection, schedule: Q01DX009 (ip), vehicle: saline): 226 % of control and 344 % of control
T/C (endpoint: median survival time, dose: 75.0 mg/kg/injection, schedule: Q01DX005 (ip), vehicle: saline): 151 % of control
T/C (endpoint: median survival time, dose: 100.0 mg/kg/injection, schedule: Q01DX005 (oral), vehicle: saline): 96 % of control
T/C (endpoint: median survival time, dose: 150.0 mg/kg/injection, schedule: Q01DX005 (ip), vehicle: saline): 348 % of control
T/C (endpoint: median survival time, dose: 200.0 mg/kg/injection, schedule: Q01DX005 (oral), vehicle: saline): 94 % of control
T/C (endpoint: median survival time, dose: 200.0 mg/kg/injection, schedule: Q01DX009 (ip), vehicle: saline): 116 % of control and 91 % of control
T/C (endpoint: median survival time, dose: 400.0 mg/kg/injection, schedule: Q01DX005 (oral), vehicle: saline): 96 % of control
T/C (endpoint: median survival time, dose: 800.0 mg/kg/injection, schedule: Q01DX005 (oral), vehicle: saline): 94 % of control

CSc1n[nH]c(N=[N+]=[N-])c1C(N)=O
T/C [1]: 96 % of control
T/C [2]: 93 % of control
T/C [3]: 101 % of control

O=S(=O)(Cl)c1cccc2c(S(=O)(=O)Cl)cccc12
T/C (endpoint: mean survival time, dose: 20.0 mg/kg/injection, schedule: Q04DX003 (ip), vehicle: Klucel (hydroxypropylcellulose) (HPC)): 102 % of control
T/C (endpoint: mean survival time, dose: 40.0 mg/kg/injection, schedule: Q04DX003 (ip), vehicle: Klucel (hydroxypropylcellulose) (HPC)): 104 % of control
T/C (endpoint: mean survival time, dose: 80.0 mg/kg/injection, schedule: Q04DX003 (ip), vehicle: Klucel (hydroxypropylcellulose) (HPC)): 95 % of control
T/C (endpoint: mean survival time, dose: 200.0 mg/kg/injection, schedule: Q04DX003 (ip), vehicle: Klucel (hydroxypropylcellulose) (HPC)): 109 % of control
T/C (endpoint: mean survival time, dose: 400.0 mg/kg/injection, schedule: Q04DX003 (ip), vehicle: Klucel (hydroxypropylcellulose) (HPC)): 122 % of control

C/C(=N\O)c1ccc2c3c(ccc([N+](=O)[O-])c13)CC2
T/C [1]: 98 % of control
T/C [2]: 98 % of control
T/C [3]: 103 % of control

NCCc1nc(N)nc(N)c1-c1ccc(Cl)cc1
T/C [4]: 103 % of control
T/C [5]: 97 % of control

CC(=O)n1cc(CS)c(=O)[nH]c1=O
T/C (endpoint: mean survival time, dose: 5.0 mg/kg/injection, schedule: Q01DX001 (ip), vehicle: saline): 105 % of control
T/C (endpoint: mean survival time, dose: 10.0 mg/kg/injection, schedule: Q01DX001 (ip), vehicle: saline): 98 % of control
T/C (endpoint: mean survival time, dose: 20.0 mg/kg/injection, schedule: Q01DX001 (ip), vehicle: saline): 105 % of control
T/C (endpoint: mean survival time, dose: 40.0 mg/kg/injection, schedule: Q01DX001 (ip), vehicle: saline): 105 % of control
T/C (endpoint: mean survival time, dose: 80.0 mg/kg/injection, schedule: Q01DX001 (ip), vehicle: saline): 105 % of control

COC(=O)C(CCCCN)NS(=O)(=O)c1ccccc1 (centres undefined)
T/C [6]: 96 % of control
T/C [1]: 109 % of control
T/C [7]: 100 % of control
T/C [2]: 91 % of control
T/C [8]: 96 % of control
T/C [3]: 103 % of control

ClCc1ccc(CCl)cc1
T/C (endpoint: mean survival time, dose: 25.0 mg/kg/injection, schedule: Q04DX003 (ip), vehicle: Klucel (hydroxypropylcellulose) (HPC)): 98 % of control
T/C (endpoint: mean survival time, dose: 50.0 mg/kg/injection, schedule: Q04DX003 (ip), vehicle: Klucel (hydroxypropylcellulose) (HPC)): 105 % of control
T/C (endpoint: mean survival time, dose: 100.0 mg/kg/injection, schedule: Q04DX003 (ip), vehicle: Klucel (hydroxypropylcellulose) (HPC)): 89 % of control

CC1=C2CCCCC2(C)CCC1=O (centres undefined)
T/C (endpoint: mean survival time, dose: 100.0 mg/kg/injection, schedule: Q04DX002 (ip), vehicle: saline with Tween-80): 120 % of control
T/C (endpoint: mean survival time, dose: 200.0 mg/kg/injection, schedule: Q04DX002 (ip), vehicle: saline with Tween-80): 108 % of control
T/C (endpoint: mean survival time, dose: 400.0 mg/kg/injection, schedule: Q04DX002 (ip), vehicle: saline with Tween-80): 100 % of control

O=C1CCN(Cc2ccccc2)C(=O)N1
T/C [9]: 97 % of control
T/C [6]: 98 % of control
T/C [1]: 106 % of control
T/C [7]: 98 % of control
T/C [2]: 97 % of control

COC1=CC(=O)c2ccccc2C1=O
T/C [1]: 91 % of control
T/C [2]: 87 % of control

CC(=O)Nc1nnc(Cl)s1
T/C (endpoint: mean survival time, dose: 100.0 mg/kg/injection, schedule: Q04DX002 (ip), vehicle: saline): 101 % of control
T/C (endpoint: mean survival time, dose: 200.0 mg/kg/injection, schedule: Q04DX002 (ip), vehicle: saline): 97 % of control
T/C (endpoint: mean survival time, dose: 400.0 mg/kg/injection, schedule: Q04DX002 (ip), vehicle: saline): 104 % of control

Nc1ccc(-c2nc(=S)c3cn[nH]c3[nH]2)cc1
T/C (endpoint: mean survival time, dose: 12.5 mg/kg/injection, schedule: Q01DX005 (ip), vehicle: other): 92 % of control
T/C (endpoint: mean survival time, dose: 25.0 mg/kg/injection, schedule: Q01DX005 (ip), vehicle: other): 94 % of control
T/C (endpoint: mean survival time, dose: 50.0 mg/kg/injection, schedule: Q01DX005 (ip), vehicle: other): 91 % of control
T/C (endpoint: mean survival time, dose: 100.0 mg/kg/injection, schedule: Q01DX005 (ip), vehicle: other): 91 % of control
T/C (endpoint: mean survival time, dose: 200.0 mg/kg/injection, schedule: Q01DX005 (ip), vehicle: other): 95 % of control

C(=N\Nc1nn[nH]n1)/c1ccccc1
T/C (endpoint: mean survival time, dose: 25.0 mg/kg/injection, schedule: Q01DX009 (ip), vehicle: saline with Tween-80): 105 % of control
T/C [9]: 97 % of control
T/C [6]: 108 % of control

Cc1ccccc1C(C)C
T/C [1]: 101 % of control
T/C [2]: 97 % of control
T/C [3]: 101 % of control

CC(=O)Nc1nc(Cl)nc2c1ncn2Cc1ccccc1
T/C (endpoint: mean survival time, dose: 75.0 mg/kg/injection, schedule: Q01DX001 (ip), vehicle: other): 95 % of control
T/C (endpoint: mean survival time, dose: 150.0 mg/kg/injection, schedule: Q01DX001 (ip), vehicle: other): 96 % of control

O=C(CNC(=O)Nc1cccc([N+](=O)[O-])c1)N/N=C/c1ccc(F)cc1
T/C [9]: 89 % of control
T/C [6]: 93 % of control
T/C [7]: 101 % of control

CCOC(=O)C(C(=O)OCC)C1c2ccccc2C(=O)N(CCN(C)C)c2ccccc21 (centres undefined)
T/C (endpoint: mean survival time, dose: 130.0 mg/kg/injection, schedule: Q01DX001 (ip), vehicle: saline): 103 % of control

CC(C)(C)OC(=O)NC(CSC(c1ccccc1)(c1ccccc1)c1ccccc1)C(=O)NCC(=O)O (centres undefined)
T/C (endpoint: mean survival time, dose: 75.0 mg/kg/injection, schedule: Q01DX001 (ip), vehicle: saline): 96 % of control

O=C(O)C1CC2C(=O)CCCCCCC2C1O (centres undefined)
T/C [4]: 93 % of control
T/C [6]: 98 % of control
T/C [5]: 98 % of control
T/C [7]: 93 % of control
T/C (endpoint: mean survival time, dose: 400.0 mg/kg/injection, schedule: Q01DX001 (ip), vehicle: saline with Tween-80): 91 % of control
T/C [8]: 96 % of control

C[n+]1ccccc1/C=N/O
T/C (endpoint: mean survival time, dose: 25.0 mg/kg/injection, schedule: Q04DX003 (ip), vehicle: saline): 96 % of control
T/C (endpoint: mean survival time, dose: 50.0 mg/kg/injection, schedule: Q04DX003 (ip), vehicle: saline): 94 % of control
T/C (endpoint: mean survival time, dose: 100.0 mg/kg/injection, schedule: Q04DX003 (ip), vehicle: saline): 93 % of control and 97 % of control

OC1(c2ccccc2)C(N2CCOCC2)=C(c2ccccc2)c2ccccc21 (centres undefined)
T/C [1]: 105 % of control
T/C [2]: 100 % of control
T/C [3]: 95 % of control
